# Assay results as given in US20060084704A1, “Methods and compositions for enhancing degradation of nuclear receptor transcription factors and uses thereof” (priority 2004, published 2006).
# What was measured:
# progesterone receptor = target: T1, progesterone receptor (Homo sapiens, UniProt P06401); assay: Western blot of LNCaP cell lysates, progesterone receptor; assay type: cell-based; settings: 1 or 2 micromolar, 24 hours, presence or absence of DHT
# T1 construct: endogenous in cells; host or cells: LNCaP
# T1 sequence (P06401 1-933): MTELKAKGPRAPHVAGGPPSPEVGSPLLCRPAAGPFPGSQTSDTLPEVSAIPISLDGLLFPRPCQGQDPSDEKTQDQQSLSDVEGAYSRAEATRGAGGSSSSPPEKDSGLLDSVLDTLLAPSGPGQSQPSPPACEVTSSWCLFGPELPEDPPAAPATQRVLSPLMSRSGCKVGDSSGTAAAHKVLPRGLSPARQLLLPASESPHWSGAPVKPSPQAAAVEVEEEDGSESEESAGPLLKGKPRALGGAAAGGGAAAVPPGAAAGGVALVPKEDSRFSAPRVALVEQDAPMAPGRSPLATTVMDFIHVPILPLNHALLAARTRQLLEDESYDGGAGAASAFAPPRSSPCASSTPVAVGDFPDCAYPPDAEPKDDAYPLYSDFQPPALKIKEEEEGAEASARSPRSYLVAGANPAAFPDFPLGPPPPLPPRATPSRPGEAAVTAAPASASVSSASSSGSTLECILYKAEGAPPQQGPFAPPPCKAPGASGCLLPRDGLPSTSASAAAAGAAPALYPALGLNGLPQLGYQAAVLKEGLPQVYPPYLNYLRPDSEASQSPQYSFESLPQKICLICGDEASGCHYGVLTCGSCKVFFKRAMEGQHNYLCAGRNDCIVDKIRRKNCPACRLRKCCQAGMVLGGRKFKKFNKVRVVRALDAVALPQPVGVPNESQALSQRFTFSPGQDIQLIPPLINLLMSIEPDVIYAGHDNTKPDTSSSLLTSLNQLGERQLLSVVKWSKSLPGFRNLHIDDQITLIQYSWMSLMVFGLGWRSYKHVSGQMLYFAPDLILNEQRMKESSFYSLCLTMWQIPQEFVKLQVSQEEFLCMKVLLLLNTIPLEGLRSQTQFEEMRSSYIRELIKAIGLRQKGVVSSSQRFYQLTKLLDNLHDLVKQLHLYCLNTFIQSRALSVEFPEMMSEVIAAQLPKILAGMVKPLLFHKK
# [1] = target: T2, wild type androgen receptor (Homo sapiens, UniProt P10275); assay: Androgen receptor transactivation assay in CV-1 cells (MMTV-luciferase reporter); assay type: cell-based; settings: CV-1 cells transfected with wild type AR, DHT 1 nM, JC9 0 uM to 7.5 uM
# T2 construct: expressed in transfected cells; host or cells: CV-1 (green monkey kidney cells lacking an androgen receptor)
# T2 sequence (P10275 1-920): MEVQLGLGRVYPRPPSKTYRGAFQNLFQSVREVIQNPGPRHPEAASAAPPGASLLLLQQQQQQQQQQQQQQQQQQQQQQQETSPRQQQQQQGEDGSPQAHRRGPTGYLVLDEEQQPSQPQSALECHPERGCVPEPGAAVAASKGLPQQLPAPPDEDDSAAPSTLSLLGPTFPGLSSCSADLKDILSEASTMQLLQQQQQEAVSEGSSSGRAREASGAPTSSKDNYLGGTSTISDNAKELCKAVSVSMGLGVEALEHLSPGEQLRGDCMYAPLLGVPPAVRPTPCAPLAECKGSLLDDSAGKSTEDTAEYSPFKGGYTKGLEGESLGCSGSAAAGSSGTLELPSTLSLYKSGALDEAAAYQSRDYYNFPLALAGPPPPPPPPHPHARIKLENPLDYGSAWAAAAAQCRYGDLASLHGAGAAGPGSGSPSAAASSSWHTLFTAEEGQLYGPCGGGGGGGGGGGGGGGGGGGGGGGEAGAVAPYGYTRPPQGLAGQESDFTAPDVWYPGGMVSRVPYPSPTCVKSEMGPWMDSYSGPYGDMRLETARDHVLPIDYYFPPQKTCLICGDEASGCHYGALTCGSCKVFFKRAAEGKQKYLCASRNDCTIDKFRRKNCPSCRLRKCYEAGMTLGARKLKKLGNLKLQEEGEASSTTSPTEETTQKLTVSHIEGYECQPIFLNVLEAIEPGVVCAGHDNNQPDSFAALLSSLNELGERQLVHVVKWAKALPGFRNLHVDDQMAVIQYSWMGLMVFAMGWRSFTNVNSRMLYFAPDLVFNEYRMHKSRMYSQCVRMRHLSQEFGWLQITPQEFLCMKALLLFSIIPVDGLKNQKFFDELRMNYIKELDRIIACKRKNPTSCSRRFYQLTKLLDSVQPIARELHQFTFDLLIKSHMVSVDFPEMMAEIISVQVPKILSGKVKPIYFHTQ
# Text: Prostate cancer cells, non-prostate tumor cells, and normal cells can be used in this transient transfection assay, which measures transactivation of the androgen receptor (AR) and can be used to detect a reduction of AR activity caused by AR degradation. In the provided non-limiting example, CV-1 (green monkey kidney cells lacking an androgen receptor) and LNCaP cells (prostate cancer cells containing an endogenous mutant AR), were transfected with a plasmid carrying an androgen response element (ARE) and a reporter gene.
# Both the CV-1 and LNCaP cells (obtained from ATCC, Manassas, Va.) were maintained in […] medium supplemented with penicillin (25 units/millilter), streptomycin (25 micrograms/milliliter), and 10% heat-inactivated fetal bovine serum (FBS). Cells were plated in 35-millimeter dishes at a concentration of 1-2×10^5cells/well and cultured at 37 degrees Celsius in an incubator under a 5% carbon dioxide atmosphere. […] The cells were lysed, and luciferase activity of the lysate was measured with the Dual-Luciferase Reporter Assay System (Promega, Madison, Wis.). Data were expressed as relative luciferase activity normalized to the internal luciferase positive control. […]
cellular concentration of progesterone receptor (progesterone receptor),SMILES,DHT-induced androgen receptor transcriptional activation (relative luciferase activity) [1]
decreased,"CCOC(=O)CCC(C(=O)C=Cc1ccc(O)c(OC)c1)C(=O)C=Cc1ccc(O)c(OC)c1 (centres unmarked) [JC15, 7-(4-hydroxy-3-methoxyphenyl)-4-[3-(4-hydroxy-3-methoxyphenyl)acryloyl]-5-oxo-hept-6-enoic acid ethyl ester]",
,"COc1ccc(C=CC(=O)C=C(O)C=Cc2ccc(OC)c(OC)c2)cc1OC [JC9, 5-hydroxy-1,7-bis(3,4-dimethoxyphenyl)-1,4,6-heptatrien-3-one]",capable of inhibiting DHT-induced androgen receptor transcriptional activation in a dose dependent manner
